Results: article PMC8968665, “Verteporfin is a substrate-selective γ-secretase inhibitor that binds the amyloid precursor protein transmembrane domain” (The Journal of Biological Chemistry, 2022)
Where “and” joins values, the source holds several entries; their conditions need not be identical. Equal values may be shown once. Entries after “also recorded” stand apart in the source; their conditions may differ. Read-outs that look alike come from different tables or passages of the source.

How the values were obtained:
[1] = molecular target: T1, C99 domain of the human amyloid precursor protein (Homo sapiens, UniProt P05067); assay: TROSY NMR titration of C99 by verteporfin, fit to 1:1 binding model
T1 construct: the transmembrane 99 residue C-terminal (C99) domain; His tag (either the C-terminal hexa-His that is kept, or the N-terminal His of C99-NT2 removed by thrombin); made in house; host or cells: E. coli BL21DE3
Procedure: The preparation of NMR screening samples consisted of final concentrations of 50 μM C99, 2.5% w/v LMPG, […] buffer imidazole, 5% v/v D2O, 0.5 mM EDTA, pH 6.5. To ensure that these final conditions were maintained, the individual components of the screening samples were added from stocks in a specific order. For example, to make 10 ml of screening sample in imidazole NMR buffer, the following was added: (1) 10 by 250 μl frozen stocks of 200 μM protein were thawed on ice and transferred to a 15 ml conical vial; (2) 1.25 ml of 20% w/v LMPG stock (dissolved in H2O) was added to the conical vial, which was mixed by vortexing; (3) 1 ml of 10× concentrated imidazole NMR buffer was added to the conical vial and mixed by vortexing; (4) the sample was then diluted to 10 ml by adding 4.75 ml of ddH2O and 0.5 ml of D2O and allowed to reach equilibrium for at least 60 min. This final pool contained 50 μM C99, 25 mM imidazole, 100 mM NaCl, 2.5% LMPG, 5% v/v D2O, 0.5 mM EDTA, pH 6.5. At that point, the samples (199 μl for each well) were distributed into 96-well plates containing predispensed compounds, thoroughly mixed by pipette, and the complete 200 μl mixtures were transferred to 3 mm x 4 inch NMR tubes. At this point, each 3 mm NMR tube contained a 200 μl sample of 50 μM C99, 50 μM Compound, 25 mM imidazole, 100 mM NaCl, 2.5% w/v LMPG, 5% v/v D2O, 0.5% v/v DMSO, 0.5 mM EDTA, pH 6.5. Loaded NMR tubes were cleaned with 100% Ethanol on a kimwipe, securely capped, and transferred to an NMR tube rack compatible with a Bruker SampleJet system.
A Bruker Avance III 600 MHz NMR spectrometer equipped with a cryoprobe (CPTCI) and automated sample changer (SampleJet) was used to collect NMR spectra. Sample details are described above. For high-throughput screening data collection, the ^15N-^1H BEST-TROSY (b_trosy3gpph.2) experiment with 64 scans for each of 96 increments and a relaxation delay of 200 ms was run at 318 K for a total data acquisition time of 35 min per sample. To achieve enhanced signal-to-noise ratio, follow-up titrations and control experiments were conducted using the BEST-TROSY pulse program with 200 scans per 96 increments at 318 K, for a total data acquisition time of 110 min per sample. Data were processed using Bruker Topspin 3.6 using a Gaussian window function with a line broadening of -10 and a Gaussian max of 0.1 in both dimensions. NMR data were then further processed and analyzed using NMR-FAM SPARKY, plotted using GraphPad Prism 9, and prepared for publication figures using Affinity Designer.
2D ^15 N-^1H HSQC NMR data used to calculate dissociations constant (KD) values by first normalizing 2D data using the established formula ([78]) (Equation 1):(1) δ(1H,15N)=√(1/2[δ2H+.14∗δ2N]) Where δ(1H,15N) is the square root of linear chemical shifts in each respective dimension, δH and δN with the Nitrogen normalization factor of 0.14.
After 2D normalization, the data were fit to a hyperbolic binding isotherm using one of the following formulas depending of the data:(2) Y=Bmax∗X/(KD+X)+NS∗X
For this equation, Y is the total binding, Bmax is the maximum binding in the same units as Y, X is the added ligand in molar units, KD is the equilibrium dissociation constant in the same units as X, and NS is a linear term to account for either vehicle or nonspecific verteporfin effects.(3) Y=Bmax∗X/(KD+X)
For this equation, Y is the total binding, Bmax is the maximum binding in the same units as Y, X is the added ligand in molar units, KD is the equilibrium dissociation constant in the same units as X. 1D NMR-binding curves were generated by directly inputting 1D chemical shift perturbations directly into the proper version of Equation 2. Peak height data, such as that quantified in Figures 4 and S4, were first generated using the peak-picking function in NMRFAM Sparky, and peak heights as a function of ligand concentration were used to generate a KD by addition into Equation 2.

[2] = molecular target: T2, γ-secretase cleavage of C100-Flag (C99) (Homo sapiens, UniProt P05067); assay: γ-Secretase assay, C100-FLAG cleavage, AICD by anti-Flag Western blot; type: biochemical
T2 construct: C100 is C99 with an added N-terminal Met residue; made in house
Procedure: The γ-secretase-dependent proteolysis assays with both substrates (C100-FLAG and HexaHis Notch 1 JM/TM) were performed in a weak zwitterionic detergent (CHAPSO, 3-[(3- cholamidopropyl)dimethylammonio]-2-hydroxy-1-propanesulfonate) solubilized conditions ([79], [80]). C100 is C99 with an added N-terminal Met residue. […] Proteolytic reactions were initiated by adding purified substrates (either C100-FLAG(79) or HexaHis-Notch 1 JM/TM(77)) and incubating at 37 °C (16 h for C100Flag and 4 h for HexaHis-Notch 1 JM/TM). Reactions were quenched with SDS, and the cleaved intracellular domain products (AICD-FLAG released from C100-FLAG or truncated intracellular domain (NICD) released from the proteolysis of Hexa-His Notch 1 JM/TM) were visualized by Western blot using specific primary antibodies, anti-FLAG antibody for FLAG-tagged AICD, and neoepitope-specific anti-V1744 antibody for NICD ([80], [83], [84]).

[3] = Verteporfin aggregation and LMPG micelle size (DLS, 1D 1H NMR); type: physicochemical
Procedure: Samples were made according to NMR sample conditions. Solutions were first filtered with a 0.2 μm syringe filter then centrifuged at […] to remove insoluble debris. The solution was then added to the inner chamber of the disposable DLS cuvette. The disposable DLS cuvette was capped and loaded in the DLS instrument. Experiments were carried out at 25 °C. The DLS software (Dynamics 7.5 software; Wyatt Technologies) calculates an apparent hydrodynamic radius (Rh) via the Stokes–Einstein equation (Equation 6):(6) Rh=kT/6πηDt where k is Boltzmann’s constant, T is the absolute temperature, η is sample viscosity, and Dt is the diffusion coefficient. The apparent molecular weight of the detergent or verteporfin particles was calculated in the Dynamics software, as based on the measured apparent radius of hydration, using the assumption that the density of the particle was similar to that of a globular protein.

T2 sequence (P05067 672-770 limits assumed): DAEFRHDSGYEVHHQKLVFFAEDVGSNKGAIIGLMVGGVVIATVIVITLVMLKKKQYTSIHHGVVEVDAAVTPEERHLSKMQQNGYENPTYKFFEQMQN
T1 sequence (P05067 672-770 limits assumed): as above

For verteporfin, the Kd ([1]; C99 in model membranes, read-out: KD of 1:1 complex) was ~17 µM, the Kd ([1]; D6PC/DMPC (q = 0.33) bicelles, n = 1, error of the fit, Fig. 3C, read-out: KD from C99 peak E766) was 17 ± 4 µM and the Kd ([1]; D6PC/DMPC (q = 0.33) bicelles, n = 1, error of the fit, Fig. 3C, read-out: KD from C99 peak T761) was 16 ± 4 µM. The Kd ([1]; LMPG micelles, 50 μM C99, pH 6.5, 318 K, 1:1 binding model, read-out: average dissociation constant (KD) across multiple residues in and around the TM domain) was 17 ± 11 µM, the Kd ([1]; depending on the membrane mimetic used (LMPG, DDMB micelles, DHPC-DMPC bicelles), read-out: KD range across membrane mimetics) was 15 to 47 µM and 10 to 50 µM and the Kd ([1]; nonionic DDMB micelles, n=1, error of the fit, Fig. S2C, read-out: KD from fitting of two different peaks) was 43 µM and 47 µM. The Kd ([1]; untagged C99 in DDMB micelles, Fig. S2 title, read-out: KD) was 45 ± 22 µM, the IC50 ([2]; 30 nM purified γ-secretase, C100-Flag, 16 h, 37 °C, n = 3, read-out: IC50, inhibition of AICD production) was 164 ± 45 µM and the “degree of inhibition of C99 cleavage at saturating verteporfin” value ([2]; 30 nM γ-secretase) was “approximately 75%”. For the same substance, the “C100-Flag cleavage efficiency (Western blot)” value ([2]; 100 µM verteporfin, 2 µM C100-Flag, 1 nM γ-secretase, Fig. S6A) was “greatly reduced”, the IC50 ([2]; depending on assay conditions (1 nM to 30 nM enzyme), read-out: IC50 range for γ-secretase cleavage of C99) was 15 to 164 µM and the “effect on LMPG micelle particle size (DLS)” value ([3]; 0 to 200 μM verteporfin, 2.5% LMPG, n = 3) was “only modest effects on micelle particle size; also recorded: insensitive”. The “state of verteporfin in micelle-free aqueous solution (1H NMR line width)” value ([3]; 100 μM verteporfin, LMPG below CMC, pH 6.5) was “aggregate formation” and the “LMPG concentration at which soluble verteporfin aggregates are fully dispersed (DLS)” value ([3]; 100 μM verteporfin, n = 3) was 50 mM.
